# Source: patent publication US11744819B2, “Antibiotic cannabinoid-terpene formulations” (priority 2019, dated 2023)
# “And” between values parts separate entries of the source, which are not always exact repeats. Identical values can stand only once. Like-named read-outs stand apart in the source and are kept apart here.
# Assays:
# [1] = system: E. faecium VRE 55A6; experiment: microbe, parasite or virus in culture; format: cell-based, Enterococcus faecium; details: for MIC Alone / MIC: compound alone in checkerboard; for MIC: Enterococcus faecium, VRE, read-out: MIC Alone, E. faecium VRE 55A6
# Description: In therapeutic applications, synergy between active ingredients occurs when an observed combined therapeutic effect is greater than the sum of therapeutic effects of individual active ingredients, or a new therapeutic effect is produced that the active ingredients could not produce alone. […] In this context, the enhancement of therapeutic effect may take the form of increased efficacy or potency and/or decreased adverse effects. The synergistic effect may be mediated in whole or in part by the pharmacokinetics and/or pharmacodynamics of the active ingredients in a subject, so that the amount and proportion of the ingredients in the formulation may be synergistic in vivo. This in vivo synergy may be effected with a formulation that includes the active ingredients in amounts and proportions that are also synergistic in in vitro assays of efficacy. As used herein, the term “synergistically effective amounts” accordingly refers to amounts that are synergistic in vivo and/or in vitro. A numeric quantification of synergy is often expressed as a fractional inhibitory concentration index (FICI), which represents the sum of the fractional inhibitory concentrations (FICs) of each drug tested, where the FIC is determined for each drug by dividing the minimum inhibitory concentration (MIC, the lowest concentration of the drug which prevents visible growth of the bacterium in a standard in vitro assay-standard colorometric assay based on resazurin) of each drug when used in combination by the MIC of each drug when used alone. In very general terms, a FICI lower or higher than 1 indicates positively correlated activity (at least additive or potentiation) or an absence of positive interactions, respectively. More definitively, synergy of two compounds may be conservatively defined as a FICI of ::::0.5 (see Odds, 2003; with additivity or potentiation corresponding to a FICI of >0.5 to ::::0.75; no interaction (indifference) corresponding to a FICI of >1 to ::::4; and antagonism corresponding to a FICI of >>4). […] (Berenbaum, 1978; Yu et al., 1980). To estimate the optimal concentrations in triple combinations, the optimal concentrations of trans-caryophyllene and cannabinoid were utilized in combination with a series of daptomycin dilutions.
# Pre-cultures of bacteria growing in their corresponding liquid media (defined below) were diluted to an 00600 of 0.0025 and 100 μl was added to 100 μl of medium containing serial 2-fold dilutions of cannabinoid (cannabinoid stocks, in methanol or acetonitrile for acidic forms, were diluted in growth medium) in 96-well plates. Plates were then incubated for 20-24 h at 37° C., and growth was recorded as 00600 in a Thermo Scientific™ Varioskan™ Flash Multimode Reader.
# FICI values was determined in a 96 well checkerboard format using the MIC assay for cannabinoids (compound A), terpenes (compound B), and daptomycin (compound C) alone and in combinations. Terpene stocks were prepared in DMSO and diluted in the growth medium. The fractional inhibitory concentration for each compound was calculated as follows: FICA=(MIC of compound A in the presence of compound B)/(MIC of compound A alone). Similarly, the FICs for compounds Band C were calculated. The FICI was calculated as FICA plus FICs plus FICc.
# [2] = system: E. faecium clinical isolate 58C9 (vancomycin and daptomycin resistant); experiment: microbe, parasite or virus in culture; details: Enterococcus faecium
# [3] = system: E. faecium clinical isolate 55A6 (vancomycin and daptomycin resistant); experiment: microbe, parasite or virus in culture; details: Enterococcus faecium
# [4] = system: Streptococcus pyogenes ATCC 51878; experiment: MIC determination; format: cell-based; details: ATCC51878
# [5] = system: Staphylococcus aureus MRSA; experiment: microbe, parasite or virus in culture; format: cell-based
# [6] = system: Staphylococcus epidermidis ATCC 14990; experiment: MIC determination; format: cell-based; details: ATCC14990
# [7] = system: Mycobacterium abscessus ATCC 19977; experiment: MIC determination (resazurin); format: cell-based; details: Mycobacteroides abscessus, ATCC19977
# [8] = system: E. faecium clinical isolate 69C6 (vancomycin resistant); details: for Fold reduction in daptomycin MIC in combination with the cannabinoid: E. faecium isolate 69C6
# [9] = system: E. faecium clinical isolate 55A6 (vancomycin and daptomycin resistant); details: for Fold reduction in daptomycin MIC in combination with the cannabinoid: E. faecium isolate 55a6
# [10] = system: E. faecium clinical isolate 69C6 (vancomycin resistant); experiment: microbe, parasite or virus in culture; details: Enterococcus faecium
# [11] = system: E. faecium clinical isolate 58C9 (vancomycin and daptomycin resistant); details: for Fold reduction in daptomycin MIC in combination with the cannabinoid: E. faecium isolate 58c9; for MIC: clinical enterococcal strain 58C9, vancomycin and daptomycin resistant
# [12] = system: Enterococcus faecium 33D3; experiment: microbe, parasite or virus in culture
# [13] = E. faecium VRE 55A6, pairwise, with daptomycin
# [14] = E. faecium VRE 55A6, pairwise, with trans-caryophyllene
# [15] = E. faecium VRE 55A6, triple, with daptomycin and trans-caryophyllene
# [16] = 33D3, Enterococcus faecium 33D3 (Table 1)
# [17] = 33D3, clinical enterococcal strain 3303
# [18] = E. faecium VRE 55A6, pairwise, with CBC
# [19] = E. faecium VRE 55A6, pairwise, with CBD
# [20] = E. faecium VRE 55A6, pairwise, with CBG
# [21] = E. faecium VRE 55A6, text b61, Table 7D
# [22] = E. faecium VRE 55A6, triple, with CBC and trans-caryophyllene
# [23] = E. faecium VRE 55A6, triple, with CBD and trans-caryophyllene
# [24] = E. faecium VRE 55A6, triple, with CBG and trans-caryophyllene
Structure (SMILES),MIC Alone ([1]; E. faecium VRE 55A6),"MIC In combination [1, 13] [µg/mL]","Max. fold change in MIC [1, 13] [fold]","MIC In combination [1, 14] [µg/mL]","Max. fold change in MIC [1, 14]","MIC In combination [1, 15] [µg/mL]","Max. fold change in MIC [1, 15] [fold]",MIC [1] [µg/mL],MIC [2] [µg/mL],MIC [3] [µg/mL],MIC ([4]; Streptococcus pyogenes) [µg/mL],MIC [5] [µg/mL],MIC ([6]; Staphylococcus epidermidis) [µg/mL],MIC [7] [µg/mL],Fold reduction in daptomycin MIC in combination with the cannabinoid [8] [Fold],Fold reduction in daptomycin MIC in combination with the cannabinoid [9] [Fold],MIC [10] [µg/mL],Fold reduction in daptomycin MIC in combination with the cannabinoid [11] [Fold],"MIC [12, 16] [µg/mL]","MIC [12, 17] [µg/mL]",further results
"CCCCCc1cc(O)c2c(c1)OC(C)(CCC=C(C)C)C=C2 (stereo not shown) [CBC, cannabichromene]",1 µg/mL,0.25,8,0.5,2 fold,0.25,8,2,1,1,1,4,4,4,32,512,1,8,1 to 2,1,–
"C=C(C)[C@@H]1CCC(C)=C[C@H]1c1c(O)cc(CCCCC)cc1O [CBD, cannabidiol, reference compound]",2 µg/mL,0.5,–,1,–,0.5,–,4,1,2,–,–,–,–,–,–,1,–,1 to 2,1,"MIC ([4]; Streptococcus pyogenes ATCC 51878, read-out: MIC): 1 µg/mL; MIC ([5]; read-out: MIC): 2 µg/mL; MIC ([6]; Staphylococcus epidermidis ATCC 14990, read-out: MIC): 2 µg/mL; MIC ([7]; Mycobacterium abscessus ATCC 19977, read-out: MIC): 16 µg/mL"
"CCCCCc1cc(O)c(C/C=C(\C)CCC=C(C)C)c(O)c1 [CBG, cannabigerol]",2 µg/mL,2,2,2,none,0.5,4,4,1,1,1,1,1 to 2,2,4,4,1,64,1 to 2,1,–
"CCCCCCCCCC(=O)N[C@@H](Cc1c[nH]c2ccccc12)C(=O)N[C@H](CC(N)=O)C(=O)N[C@@H](CC(=O)O)C(=O)N[C@@H]1C(=O)NCC(=O)N[C@@H](CCCN)C(=O)N[C@@H](CC(=O)O)C(=O)N[C@H](C)C(=O)N[C@@H](CC(=O)O)C(=O)NCC(=O)N[C@H](CO)C(=O)N[C@@H]([C@H](C)CC(=O)O)C(=O)N[C@@H](CC(=O)c2ccccc2N)C(=O)O[C@@H]1C [Daptomycin, daptomycin, reference compound]",16 µg/mL and >16 µg/mL,–,–,8,2 fold,–,–,–,–,–,–,–,–,–,–,–,–,–,–,–,"MIC In combination [1, 18]: 0.031 µg/mL; Max. fold change in MIC [1, 18]: 512 fold; MIC In combination [1, 19]: 1 µg/mL; Max. fold change in MIC [1, 19]: 16 fold; MIC In combination [1, 20]: 4 µg/mL; Max. fold change in MIC [1, 20]: 4 fold; MIC of daptomycin (alone) [1, 21]: > 16 µg/mL; MIC of daptomycin in the presence of CBC and trans caryophyllene [1, 21]: 0.03 µg/mL; MIC In combination [1, 22]: 0.03 µg/mL; Max. fold change in MIC [1, 22]: >512 fold; Max. fold change in MIC ([1]; E. faecium VRE 55A6, triple, with CBC and trans-caryophyllene, listed as daptomycin): > 512 fold; MIC In combination [1, 23]: 2 µg/mL; Max. fold change in MIC [1, 23]: >8 fold; MIC In combination [1, 24]: 2 µg/mL; Max. fold change in MIC [1, 24]: >8 fold; MIC ([8]; clinical enterococcal strain 69C6, vancomycin resistant): 1 µg/mL; MIC ([9]; clinical enterococcal strain 55A6, vancomycin and daptomycin resistant): 8 µg/mL; MIC [11]: 8 µg/mL; MIC ([11]; listed as daptomycin): 4 µg/mL"
